{"source": "patent US10821151B2", "about": "“Compositions and methods for treating cancer and persistent viral infections” (SUSAVION BIOSCIENCES, INC., priority 2015, dated 2020)", "key": {"MTS cell viability assay": {"experiment": "MTS cell viability assay", "type": "cell-based", "conditions": "human, human PBMCs; 3 days, peptide alone or with diluted anti-HIV antiserum, 1 nM to 1 μM", "protocol": "(§1) Human PBMCs were incubated 3 days with peptides and then assay plates were stained with the soluble tetrazolium-based dye MTS to determine cell viability. The mitochondrial enzymes of metabolically active cells metabolize MTS to yield a colored formazan product. After an incubation period of 4 to 6 h at 37° C., the plates were read spectrophotometrically. Cells treated with peptide SVH1C alone or with diluted anti-HIV antiserum were 100±2% viable at peptide concentrations of 1 nM to 1 μM. In another assay to determine cytotoxicity, cells were doubly stained with acridine orange and ethidium bromide. In this assay, viable cells fluoresce green while dead cells fluoresce red."}, "NKG2D": {"biological_target": "T1, NKG2D (Homo sapiens, UniProt P26718)", "T1 sequence (P26718 78-216 limits assumed)": "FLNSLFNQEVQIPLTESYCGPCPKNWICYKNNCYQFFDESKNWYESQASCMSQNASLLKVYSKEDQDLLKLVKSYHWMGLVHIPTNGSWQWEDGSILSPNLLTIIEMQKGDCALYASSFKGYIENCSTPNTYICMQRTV", "experiment": "solid-phase binding assay with Fc-chimeric NKG2D", "conditions": "for inhibition of binding of SVH1C to NKG2D: fetuin 5, 10, 30 μM, sialyllactose 12, 20, 40 μM"}, "cells": {"test_system": "cells", "experiment": "acridine orange / ethidium bromide cytotoxicity assay", "type": "cell-based", "conditions": "1 mM", "protocol": "as §1"}, "dectin-1": {"biological_target": "T2, dectin-1 (Homo sapiens, UniProt Q9BXN2)", "T2 sequence (Q9BXN2 1-247)": "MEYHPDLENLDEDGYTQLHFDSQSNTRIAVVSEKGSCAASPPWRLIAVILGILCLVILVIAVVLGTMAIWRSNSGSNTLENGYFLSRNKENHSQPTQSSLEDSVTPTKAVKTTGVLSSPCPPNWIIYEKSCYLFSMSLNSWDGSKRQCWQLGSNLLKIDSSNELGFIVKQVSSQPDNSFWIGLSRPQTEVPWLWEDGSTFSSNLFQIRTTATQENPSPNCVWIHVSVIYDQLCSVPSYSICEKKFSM", "experiment": "solid-phase binding assay"}, "ASGPR-1": {"biological_target": "T3, ASGPR-1 (Homo sapiens, UniProt P07306)", "T3 sequence (P07306 1-291)": "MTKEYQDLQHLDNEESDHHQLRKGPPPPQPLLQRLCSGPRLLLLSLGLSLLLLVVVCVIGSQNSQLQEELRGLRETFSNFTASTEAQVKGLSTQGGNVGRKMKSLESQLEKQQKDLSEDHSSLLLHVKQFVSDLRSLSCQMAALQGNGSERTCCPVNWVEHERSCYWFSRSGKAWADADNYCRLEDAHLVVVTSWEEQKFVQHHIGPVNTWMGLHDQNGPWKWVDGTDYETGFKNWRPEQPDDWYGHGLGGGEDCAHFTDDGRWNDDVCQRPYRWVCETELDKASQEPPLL", "experiment": "solid-phase binding assay"}, "CLEC10a": {"biological_target": "T4, CLEC10a (Homo sapiens, UniProt Q8IUN9)", "T4 sequence (Q8IUN9 1-316)": "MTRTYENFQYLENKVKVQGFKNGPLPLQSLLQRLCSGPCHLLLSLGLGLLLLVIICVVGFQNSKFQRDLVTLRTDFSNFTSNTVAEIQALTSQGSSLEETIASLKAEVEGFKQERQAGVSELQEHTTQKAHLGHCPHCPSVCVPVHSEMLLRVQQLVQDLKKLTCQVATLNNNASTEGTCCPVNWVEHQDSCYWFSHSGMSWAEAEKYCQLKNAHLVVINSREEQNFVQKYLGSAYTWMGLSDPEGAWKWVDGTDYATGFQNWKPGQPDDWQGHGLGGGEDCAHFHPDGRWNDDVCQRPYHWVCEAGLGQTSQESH", "experiment": "solid-phase binding assay"}, "DC-SIGN": {"biological_target": "T5, DC-SIGN (Homo sapiens, UniProt Q9NNX6)", "T5 sequence (Q9NNX6 1-404)": "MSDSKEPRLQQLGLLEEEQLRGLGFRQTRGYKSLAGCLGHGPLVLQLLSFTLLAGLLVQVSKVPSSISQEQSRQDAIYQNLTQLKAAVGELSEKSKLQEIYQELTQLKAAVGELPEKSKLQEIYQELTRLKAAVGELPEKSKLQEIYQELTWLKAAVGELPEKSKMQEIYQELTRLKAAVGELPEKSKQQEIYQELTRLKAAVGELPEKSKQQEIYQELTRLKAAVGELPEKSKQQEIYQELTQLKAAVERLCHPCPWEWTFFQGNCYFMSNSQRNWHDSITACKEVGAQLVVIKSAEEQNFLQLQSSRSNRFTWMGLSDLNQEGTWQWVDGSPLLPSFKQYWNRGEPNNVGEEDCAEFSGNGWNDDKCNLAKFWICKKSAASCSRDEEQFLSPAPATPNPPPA", "experiment": "solid-phase binding assay"}, "ovarian cancer cell line": {"test_system": "ovarian cancer cell line", "experiment": "mouse model of ovarian cancer, ascites monitored by body weight"}, "CLEC9a": {"biological_target": "CLEC9a (Homo sapiens, UniProt Q6UXN8)", "sequence (Q6UXN8 whole entry)": "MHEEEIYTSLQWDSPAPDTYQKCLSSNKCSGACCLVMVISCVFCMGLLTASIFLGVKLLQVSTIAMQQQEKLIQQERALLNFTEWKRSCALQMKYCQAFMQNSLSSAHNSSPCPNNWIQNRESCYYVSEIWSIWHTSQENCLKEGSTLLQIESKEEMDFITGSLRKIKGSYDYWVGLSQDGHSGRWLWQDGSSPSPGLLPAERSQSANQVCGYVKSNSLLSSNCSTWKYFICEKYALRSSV", "experiment": "solid-phase binding assay"}, "Siglec-1": {"biological_target": "Siglec-1 (Homo sapiens, UniProt Q9BZZ2)", "sequence (Q9BZZ2 20-1709)": "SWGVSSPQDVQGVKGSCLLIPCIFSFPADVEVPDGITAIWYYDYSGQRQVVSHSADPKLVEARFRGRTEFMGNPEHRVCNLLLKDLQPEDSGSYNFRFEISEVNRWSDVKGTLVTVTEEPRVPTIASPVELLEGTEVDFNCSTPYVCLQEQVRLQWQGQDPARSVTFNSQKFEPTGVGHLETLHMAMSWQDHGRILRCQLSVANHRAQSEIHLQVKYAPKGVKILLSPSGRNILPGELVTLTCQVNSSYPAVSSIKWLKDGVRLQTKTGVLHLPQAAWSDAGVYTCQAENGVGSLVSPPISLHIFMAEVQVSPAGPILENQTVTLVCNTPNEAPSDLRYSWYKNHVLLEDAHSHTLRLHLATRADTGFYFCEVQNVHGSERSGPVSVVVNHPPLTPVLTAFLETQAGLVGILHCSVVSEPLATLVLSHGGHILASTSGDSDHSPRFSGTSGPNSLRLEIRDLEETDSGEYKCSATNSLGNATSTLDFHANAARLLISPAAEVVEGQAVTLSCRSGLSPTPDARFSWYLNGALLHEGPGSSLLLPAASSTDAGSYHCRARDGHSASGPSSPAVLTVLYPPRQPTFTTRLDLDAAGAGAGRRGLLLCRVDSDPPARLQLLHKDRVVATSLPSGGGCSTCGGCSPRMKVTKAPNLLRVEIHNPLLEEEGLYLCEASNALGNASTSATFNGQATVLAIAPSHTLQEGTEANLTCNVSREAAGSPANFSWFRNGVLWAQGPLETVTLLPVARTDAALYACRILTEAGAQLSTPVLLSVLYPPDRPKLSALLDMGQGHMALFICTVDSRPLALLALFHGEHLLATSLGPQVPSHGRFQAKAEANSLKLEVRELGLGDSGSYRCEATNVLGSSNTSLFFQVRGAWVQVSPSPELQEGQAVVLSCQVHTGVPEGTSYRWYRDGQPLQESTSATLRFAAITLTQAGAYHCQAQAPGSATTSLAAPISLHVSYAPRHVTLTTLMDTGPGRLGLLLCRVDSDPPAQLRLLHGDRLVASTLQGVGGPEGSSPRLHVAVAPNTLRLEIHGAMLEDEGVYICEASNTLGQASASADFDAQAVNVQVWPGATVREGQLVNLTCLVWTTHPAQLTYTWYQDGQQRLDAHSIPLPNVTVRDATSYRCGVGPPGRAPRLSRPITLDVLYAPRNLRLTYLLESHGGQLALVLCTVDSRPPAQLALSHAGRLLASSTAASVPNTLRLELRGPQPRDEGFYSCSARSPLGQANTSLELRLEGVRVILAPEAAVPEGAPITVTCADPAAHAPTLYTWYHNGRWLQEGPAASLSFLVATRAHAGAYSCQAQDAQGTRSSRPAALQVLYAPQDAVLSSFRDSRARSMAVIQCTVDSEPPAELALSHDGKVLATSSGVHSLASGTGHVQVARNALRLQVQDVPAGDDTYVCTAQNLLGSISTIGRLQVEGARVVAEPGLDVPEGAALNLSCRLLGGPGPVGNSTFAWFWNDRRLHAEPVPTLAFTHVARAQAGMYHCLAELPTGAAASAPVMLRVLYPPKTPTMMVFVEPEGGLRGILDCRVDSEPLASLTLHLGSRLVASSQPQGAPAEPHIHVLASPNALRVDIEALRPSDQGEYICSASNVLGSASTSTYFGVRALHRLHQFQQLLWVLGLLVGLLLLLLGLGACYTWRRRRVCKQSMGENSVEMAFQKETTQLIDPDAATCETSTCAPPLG", "experiment": "solid-phase binding assay"}, "langerin": {"biological_target": "langerin (Homo sapiens, UniProt Q9UJ71)", "sequence (Q9UJ71 whole entry)": "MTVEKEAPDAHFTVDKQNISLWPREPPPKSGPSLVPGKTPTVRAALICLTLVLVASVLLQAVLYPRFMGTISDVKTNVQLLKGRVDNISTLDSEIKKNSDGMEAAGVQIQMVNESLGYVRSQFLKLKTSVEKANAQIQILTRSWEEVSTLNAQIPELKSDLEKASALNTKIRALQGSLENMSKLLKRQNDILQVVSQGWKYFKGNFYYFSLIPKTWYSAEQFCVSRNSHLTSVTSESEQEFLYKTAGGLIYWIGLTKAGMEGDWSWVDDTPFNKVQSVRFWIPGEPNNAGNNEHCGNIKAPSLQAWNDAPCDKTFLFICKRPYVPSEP", "experiment": "solid-phase binding assay"}, "siglecs": {"test_system": "siglecs", "experiment": "solid-phase binding assay, biotinylated peptide, streptavidin-peroxidase", "conditions": "fetuin added at 10 μM or 30 μM"}}, "note": "Positions of bridges follow the written chain, without caps; N, C: chain ends. Chains are numbered I, II in the order given. No end group written: not given here."}
{"substance": "I: NPSHPLSGGGGSKK-NH2 / II: NPSHPLSGGGGSK / III: NPSHPLSGGGGS / IV: NPSHPLSGGGGS (amide I:13-IV:C, I:14-II:C, II:13-III:C) [SVH1C, [NPSHPLSGGGGS]4K3-NH2]", "values": [{"measurement": "viability at 72 h", "setting": "MTS cell viability assay", "result": "100 ± 2", "unit": "%"}, {"measurement": "Kd", "setting": "NKG2D", "result": "~1", "unit": "µM"}, {"measurement": "cytotoxicity", "setting": "cells", "result": "did not exhibit cytotoxicity"}]}
{"substance": "[NQHTPRGGGS]4K3-NH2 [SV6D]", "values": [{"measurement": "binding to dectin-1", "setting": "dectin-1", "result": "bound strongly"}, {"measurement": "binding to ASGPR-1", "setting": "ASGPR-1", "result": "bound strongly"}, {"measurement": "binding to CLEC10a", "setting": "CLEC10a", "result": "bound strongly"}, {"measurement": "binding to DC-SIGN", "setting": "DC-SIGN", "result": "not"}, {"measurement": "progression of ascites", "setting": "ovarian cancer cell line", "result": "effectively inhibited"}, {"measurement": "binding to CLEC9a", "setting": "CLEC9a", "result": "not"}, {"measurement": "binding to Siglec-1", "setting": "Siglec-1", "result": "not"}, {"measurement": "binding to langerin", "setting": "langerin", "result": "bound strongly"}]}
{"substance": "fetuin", "values": [{"measurement": "inhibition of binding of SVH1C to NKG2D", "setting": "NKG2D", "result": "inhibited"}, {"measurement": "inhibition of binding of SVH1C to siglecs", "setting": "siglecs", "result": "inhibited"}]}
{"substance": "sialyllactose", "values": [{"measurement": "inhibition of binding of SVH1C to NKG2D", "setting": "NKG2D", "result": "inhibited"}]}
